Literature values in patent US20050266409A1, “Compositions and methods for diagnosing, preventing, and treating cancers” (priority 2003, published 2005).

Experiments:
tumor cells = details: read-out: 50% growth inhibition of tumor cells
[1] = test system: lymphoid, myeloid, colon, and prostate cancer cells; details: prostate cancer xenografts in nude mice

IC50 (tumor cells): 60 nM
Structure (SMILES): CN1CC[C@H](c2c(O)cc(O)c3c(=O)cc(-c4ccccc4Cl)oc23)[C@H](O)C1 [Flavopiridol]
inhibition of cancer cells grown in vivo as tumor xenografts [1]: inhibits
